Patent US7332468B2, “8-tetradecenal as fragrance and flavoring substance” (Symrise GmbH & Co. KG, priority 2001, dated 2008)

How the values were obtained:
[1] = Determination of the odor threshold values in water
Experimental: The odor threshold values in water were determined in the conventional manner for (Z)-8- and (E)-8-tetradecenal and for two comparison substances.

[2] = Odor description by a panel of expert flavoring specialists, ranking scale 0-4; parameters: key to Green-herby / Honey-like (beeswax) / Fresh, fizzy / Citrus-like / Fruity / Flowery / Of orange peel / Of pith / Sweet / Fatty / Waxy: 0: absent; 1: weak; 2: moderate; 3: strong; 4: very strong; settings: odor ranking 0-4, expert panel
Experimental: The substances (Z)-8- and (E)-8-tetradecenal according to the invention were tested by a panel of expert flavoring specialists in the conventional manner. The experts assessed the relevant odors on the basis of the procedure in the article entitled “Organoleptic properties of aliphatic aldehydes”, Boelens, Mans H.; Van Gemert, Leo J.; Perfum. Flavor. (1987), 12(5), 31-7, 40, 43, which has already been cited, i.e. they quantified the odors of the particular substance on the basis of an assessment scale with rankings of 0-4. The rankings have the following meanings: • 0: absent • 1: weak • 2: moderate • 3: strong • 4: very strong

[3] = Modification of a conventional orange flavor composition; settings: based on the total mass of the composition
Excerpt: A conventional flavor composition (composition A) was compared with a flavor composition according to the invention (composition B).

[4] = Boelens, Van Gemert 1987; cited from earlier work
[5] = Cadwallader et al. 1999; cited from earlier work

With `CCCCC/C=C\CCCCCCC=O` [8-(Z)-tetradecenal, (Z)-8-tetradecenal] the Odor threshold value ([1]; in water) was 0.009 ppb, the “odor threshold value lower than that of (Z)-7-tetradecenal and (Z)-9-tetradecenal” value ([1]; in water) was “approximately 2 orders of magnitude” and the Chemical [2] was 0-1. The Citrus-like [2] was 4, the Fatty [2] was 1 and the Flowery [2] was 2. The “Fresh, fizzy” value [2] was 4, the Fruity [2] was 1 and the Green-herby [2] was 0. The “Honey-like (beeswax)” value [2] was 2, the Of orange peel [2] was 4 and the Of pith [2] was 4. For the same molecule, the Sweet [2] was 3, the Waxy [2] was 1-2 and the “proportion sufficient to make a conventional orange flavor fresher, juicier, more typical and more harmonious” value [3] was 0.001 % (m/m).

In the case of `CCCCC/C=C/C=O` [trans-2-octenal], the citrus aspect [4] is given as “noteworthy”.

For `CCCCCCCCCCC/C=C/C=O` [(E)-2-tetradecenal], the odor description [5] is given as “fatty, waxy, cheesy”, the citrus aspect [4] is given as “weak” and the fatty aspect [4] is given as “strong”.

With `CCCCC/C=C/CCCCCCC=O` [8-(E)-tetradecenal, (E)-8-tetradecenal] the Odor threshold value ([1]; in water) was 1.24 ppb, the Chemical [2] was 2-3 and the Citrus-like [2] was 1-2. The Fatty [2] was 4, the Flowery [2] was 0-1 and the “Fresh, fizzy” value [2] was 0. The Fruity [2] was 0, the Green-herby [2] was 1 and the “Honey-like (beeswax)” value [2] was 0. The Of orange peel [2] was 0, the Of pith [2] was 1 and the Sweet [2] was 1-2. It also gave a Waxy [2] of 4.

For `CCCCCCC/C=C/C=O` [trans-2-decenal], the citrus aspect [4] is given as “noteworthy”.

For `CCCCC/C=C/CCC=O` [(E)-4-decenal], the odor description [5] is listed as “citrus peel”.

For `CCCC/C=C\CCCCCCCC=O` [9-(Z)-tetradecenal, (Z)-9-tetradecenal], the “usable sensory properties compared with (Z)-8-tetradecenal” value [1] was “do not have any usable sensory properties”, the Odor threshold value ([1]; in water) was 1.44 ppb and the “odor threshold compared with that of (Z)-8-tetradecenal” value ([1]; in water) was “approximately two orders of magnitude higher”.

With `CCCCCC/C=C\CCCCCC=O` [7-(Z)-tetradecenal, (Z)-7-tetradecenal] the “usable sensory properties compared with (Z)-8-tetradecenal” value [1] was “do not have any usable sensory properties”, the Odor threshold value ([1]; in water) was 2.60 ppb and the “odor threshold compared with that of (Z)-8-tetradecenal” value ([1]; in water) was “approximately two orders of magnitude higher”.

In the case of `CCCCCCCC/C=C/C=O` [trans-2-undecenal], the citrus aspect [4] is listed as “noteworthy”.
